In PMC6792352, “Limited Chemical Structural Diversity Found to Modulate Thyroid Hormone Receptor in the Tox21 Chemical Library” (Environmental Health Perspectives, 2019):
Counter-ions that a name gives are not always drawn.

assay: in vitro; settings: rat, gh3-tre-luc cells, AC50 (uM) modified / 1000

| SMILES | CC50 at 24 h [µM] |
| --- | --- |
| CC(=O)OC(C)OC(C)=O [1,1-Ethanediol diacetate] | > 90 |
| CCCCCCCCCCC(=O)O [Undecanoic acid] | > 90 |
| O=C(O)c1nn(Cc2ccc(Cl)cc2Cl)c2ccccc12 [Lonidamine] | > 90 |
| O=C(Cl)/C=C/C(=O)Cl [Fumaryl chloride] | > 90 |
| CCCCC/C=C/C/C=C/CCCCCCCC(=O)OCC [Ethyl linoleate] | > 50 |
| CCC(C)SSC(C)CC (centres unmarked) [Dibutan-2-yl disulfide] | > 90 |
| CC1CCN(CCCC(=O)c2ccc(F)cc2)CC1 [Methylperone] | > 50 |
| CCCCCC[C@@H](O)C/C=C\CCCCCCCC(=O)OCC(O)CO (some centres unmarked) [Glyceryl monoricinoleate] | > 90 |
| CCOC(=O)/C=C/C(=O)OCC [Diethyl (2E)-but-2-enedioate] | > 90 |
| CN1CCN=C(c2ccccc2)c2cc(Cl)ccc21 [Medazepam] | > 50 |
| O=C(O)COc1ccc(CCNS(=O)(=O)c2ccccc2)s1 [Linotroban] | > 50 |
| O=C(/C=C/c1ccc(O)c(O)c1)O[C@@H]1C[C@](O)(C(=O)O)C[C@@H](O)[C@H]1O [Chlorogenic acid] | > 90 |
| C1=CCC(c2ccccc2)CC1 (centres unmarked) [4-Phenyl-1-cyclohexene] | > 90 |
| COc1ccc(Nc2ccccc2)c(C)c1 [4-Methoxy-2-methyl-N-phenylaniline] | > 90 |
| CC1CC(=O)CC(C)(C)C1 (centres unmarked) [3,3,5-Trimethylcyclohexanone] | > 90 |
| O=C(CC(=O)c1ccccc1)c1ccccc1 [1,3-Diphenyl-1,3-propanedione] | > 100 |

| SMILES | CC50 at 24 h [µM] |
| --- | --- |
| CCCCCCCCCC=O [Decanal] | > 90 |
| O=S(=O)(c1cccc2cnccc12)N1CCCNCC1 [Fasudil hydrochloride] | > 50 |
| C=CCCCCCC [1-Octene] | > 90 |
| O=C(CC(C(=O)OC1CCCCC1)S(=O)(=O)O)OC1CCCCC1 (centres unmarked) [Dicyclohexyl sodium sulfosuccinate] | > 90 |
| CCCCCC[N+](=O)[O-] [1-Nitrohexane] | > 90 |
| OCCN(CCO)CCN(CCO)CCO [2,2',2'',2'''-(1,2-Ethanediyldinitrilo)tetrakisethanol] | > 90 |
| CCCCCCCCCCCCCCCCCCOCC(COP(=O)([O-])OCC[N+](C)(C)C)OC (centres unmarked) [Edelfosine] | 43.1 |
| COc1ccc([C@@H]2CC(=O)c3c(O)cc(O[C@@H]4O[C@H](CO[C@@H]5O[C@@H](C)[C@H](O)[C@@H](O)[C@H]5O)[C@@H](O)[C@H](O)[C@H]4O)cc3O2)cc1O [Hesperidin] | > 20 |
| CC(C)C(=O)OCCc1ccccc1 [2-Phenylethyl 2-methylpropanoate] | > 90 |
| O=C1C=CC(=O)O1 [2,5-Furandione] | > 100 |
| CC(=O)N[C@@H](CS)C(=O)O [N-Acetyl-L-cysteine] | > 90 |
| CCOc1ccc(NC(=O)CC(C)=O)cc1 [N-(4-Ethoxyphenyl)-3-oxobutanamide] | > 90 |
| O=C(C(=O)c1ccccc1)c1ccccc1 [1,2-Diphenylethanedione] | > 90 |
| CC(=O)[C@H]1CC[C@H]2[C@@H]3CC=C4C[C@@H](O)CC[C@]4(C)[C@H]3CC[C@]12C [Pregnenolone] | > 90 |
| O=S(=O)(O)c1ccc2ccccc2c1 [Sodium 2-naphthalenesulfonate] | > 90 |
| CC(C)CCCCCCCOC(=O)CCCCC(=O)OCCCCCCCC(C)C [Diisodecyl hexanedioate] | > 100 |

same assay, conditions: rat, gh3-tre-luc cells, AC50 (uM) modified / 1000, Tox21_110001=Tox21_112608; viability, 1 nM T3 present, 24 h

| SMILES | CC50 at 24 h [µM] |
| --- | --- |
| CN1C(=O)CC(=O)N(c2ccccc2)c2cc(Cl)ccc21 [Clobazam] | > 50 |

same assay, conditions: rat, gh3-tre-luc cells, AC50 (uM) modified / 1000, Tox21_110001=Tox21_113339; viability, 1 nM T3 present, 24 h

| SMILES | CC50 at 24 h [µM] |
| --- | --- |
| CCCCC1C(=O)NC(=O)N(C2CCCCC2)C1=O (centres unmarked) [Bucolome] | > 50 |

same assay, conditions: rat, gh3-tre-luc cells, AC50 (uM) modified / 1000, Tox21_110001=Tox21_200572; viability, 1 nM T3 present, 24 h

| SMILES | CC50 at 24 h [µM] |
| --- | --- |
| O=[N+]([O-])c1ccc(CCl)cc1 [4-Nitrobenzyl chloride] | > 90 |

same assay, conditions: rat, gh3-tre-luc cells, AC50 (uM) modified / 1000, Tox21_110001=Tox21_201430; viability, 1 nM T3 present, 24 h

| SMILES | CC50 at 24 h [µM] |
| --- | --- |
| C=CC(=O)OCCO [2-Hydroxyethyl acrylate] | > 90 |

same assay, conditions: rat, gh3-tre-luc cells, AC50 (uM) modified / 1000, Tox21_110001=Tox21_301297; viability, 1 nM T3 present, 24 h

| SMILES | CC50 at 24 h [µM] |
| --- | --- |
| NC(=O)CF [2-Fluoroacetamide] | > 90 |

same assay, conditions: rat, gh3-tre-luc cells, AC50 (uM) modified / 1000, Tox21_110001=Tox21_302046; viability, 1 nM T3 present, 24 h

| SMILES | CC50 at 24 h [µM] |
| --- | --- |
| CCCCCCCCCCCCBr [1-Bromododecane] | > 90 |
